Target: T1, human GR (Homo sapiens, UniProt P04150)
T1 sequence (P04150 1-777): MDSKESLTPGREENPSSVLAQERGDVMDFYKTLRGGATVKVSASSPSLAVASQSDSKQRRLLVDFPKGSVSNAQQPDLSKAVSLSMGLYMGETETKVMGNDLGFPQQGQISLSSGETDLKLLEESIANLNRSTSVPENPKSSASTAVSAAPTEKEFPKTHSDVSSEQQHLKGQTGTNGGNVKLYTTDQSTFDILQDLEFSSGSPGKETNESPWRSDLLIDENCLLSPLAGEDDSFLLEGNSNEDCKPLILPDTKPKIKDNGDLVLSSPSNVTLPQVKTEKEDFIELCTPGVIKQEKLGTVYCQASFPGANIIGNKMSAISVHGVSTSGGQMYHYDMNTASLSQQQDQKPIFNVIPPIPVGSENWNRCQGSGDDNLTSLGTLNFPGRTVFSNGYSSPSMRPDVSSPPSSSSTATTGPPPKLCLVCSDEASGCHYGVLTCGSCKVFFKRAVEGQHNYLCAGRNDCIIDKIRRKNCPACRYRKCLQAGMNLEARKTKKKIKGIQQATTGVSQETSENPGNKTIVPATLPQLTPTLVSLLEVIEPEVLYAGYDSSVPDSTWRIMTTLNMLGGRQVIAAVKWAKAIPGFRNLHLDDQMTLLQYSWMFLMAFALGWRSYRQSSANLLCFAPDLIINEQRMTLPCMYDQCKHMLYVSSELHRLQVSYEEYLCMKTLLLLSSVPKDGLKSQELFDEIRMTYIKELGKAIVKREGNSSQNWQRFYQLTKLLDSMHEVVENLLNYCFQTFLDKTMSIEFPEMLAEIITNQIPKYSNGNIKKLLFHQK
Test: Transrepression Assay (GITAR), TNFα-β-lactamase reporter gene in U937 cells
Type: cell-based
Set-up: U937 cells contain an endogenous glucocorticoid receptor (GR); endogenous in cells; host or cells: U937 cells stably transfected with the TNF-α promoter/β-lactamase reporter only
Details: U-937; 100 nM dexamethasone = 100% activity; read-out: maximal activity in the transrepression assay
Source text: Transrepression Assay (GITAR)
This assay assesses the ability of test compounds to control transcription from the TNFα-β-lactamase reporter gene in U937 cells, a human myelomonocytic leukemia cell line that naturally expresses the human GR. The assay measures compound dependent-repression of the TNFa promoter linked to a reporter gene.
The human U937 cells that had been stably transfected with the TNF-α promoter driving β-lactamase are used for this assay. U937 cells contain an endogenous glucocorticoid receptor (GR). […] 50,000 cells/well are plated in 96 well black-walled plates the day of assay. Test compounds are added 10 μL/well, and cells are incubated at 37° C. for 30˜45 min. For assaying compounds, first dilute 1:10 in DMSO to make 1 mM, then further dilute 1:100 in medium to make 10× stock prior to adding to the cells. Add 50 ng/ml PMA (Sigma, cat# P8139) 10 μL/well to a final concentration 5 ng/ml, and 1 μg/ml LPS (Sigma, cat# L4130) 10 μL/well to a final concentration 100 ng/ml. Incubate cells at 370 C overnight for ˜18 hr. PMA is stored frozen as 100 μg/ml stock in DMSO. Dilute 1:10 in DMSO for a working stock of 10 μg/ml and store at −20 C. For assaying, dilute the 10 μg/ml working stock 1:200 in medium to make a 10× solution (50 ng/ml). Store frozen LPS at 1 mg/ml in PBS, dilute 1:1000 in medium to make 10× (1 μg/ml) for the assay. Add 6× loading buffer (CCF2-AM) 20 μL/well, and incubate at room temperature for 70˜90 min. […] The activity repressed by 100 nM dexamethasone alone is set as 100% activity.

Emax, 5 to 100%:
C[C@]12Cc3cnn(-c4ccc(F)cc4)c3C=C1CC[C@@]2(O)CCc1cccc(F)c1CNS(=O)(=O)c1ccccc1 [Example 78, N-(2-fluoro-6-{2-[(4αS,5R)-1-(4-fluorophenyl)-5-hydroxy-4α-methyl-1,4,4α,5,6,7-hexahydrocyclopenta[f]indazol-5-yl]ethyl}benzyl)benzenesulfonamide]
C[C@]12Cc3cnn(-c4ccc(F)cc4)c3C=C1CC[C@@]2(O)CCc1cccc(F)c1CNS(=O)(=O)c1ccc(F)cc1F [Example 79, 2,4-difluoro-N-(2-fluoro-6-{2-[(4αS,5R)-1-(4-fluorophenyl)-5-hydroxy-4α-methyl-1,4,4α,5,6,7-hexahydrocyclopenta[f]indazol-5-yl]ethyl}benzyl)benzenesulfonamide]
C[C@]12Cc3cnn(-c4ccc(F)cc4)c3C=C1CC[C@@]2(O)CCc1cccc(F)c1CNS(=O)(=O)c1ccccc1F [Example 80, 2-fluoro-N-(2-fluoro-6-{2-[(4αS,5R)-1-(4-fluorophenyl)-5-hydroxy-4α-methyl-1,4,4α,5,6,7-hexahydrocyclopenta[f]indazol-5-yl]ethyl}benzyl)benzenesulfonamide]
C[C@]12Cc3cnn(-c4ccc(F)cc4)c3C=C1CC[C@@]2(O)CCc1cccc(F)c1CNS(=O)(=O)c1cccc(C#N)c1 [Example 81, 3-cyano-N-(2-fluoro-6-{2-[(4αS,5R)-1-(4-fluorophenyl)-5-hydroxy-4α-methyl-1,4,4α,5,6,7-hexahydrocyclopenta[f]indazol-5-yl]ethyl}benzyl)benzenesulfonamide]
C[C@]12Cc3cnn(-c4ccc(F)cc4)c3C=C1CC[C@@]2(O)CCc1cccc(F)c1CNS(=O)(=O)c1cccnc1 [Example 82, N-(2-fluoro-6-{2-[(4αS,5R)-1-(4-fluorophenyl)-5-hydroxy-4α-methyl-1,4,4α,5,6,7-hexahydrocyclopenta[f]indazol-5-yl]ethyl}benzyl)pyridine-3-sulfonamide]
C[C@]12Cc3cnn(-c4ccc(F)cc4)c3C=C1CC[C@@]2(O)CCc1ccccc1CNS(C)(=O)=O [Example 87, N-(2-{2-[(4αS,5R)-1-(4-fluorophenyl)-5-hydroxy-4α-methyl-1,4,4α,5,6,7-hexahydrocyclopenta[f]indazol-5-yl]ethyl}benzyl)methanesulfonamide]
C[C@]12Cc3cnn(-c4ccc(F)cc4)c3C=C1CC[C@@]2(O)CCc1ccccc1CNS(=O)(=O)CC(F)(F)F [Example 90, 2,2,2-trifluoro-N-(2-{2-[(4αS,5R)-1-(4-fluorophenyl)-5-hydroxy-4α-methyl-1,4,4α,5,6,7-hexahydrocyclopenta[f]indazol-5-yl]ethyl}benzyl)ethanesulfonamide]
C[C@]12Cc3cnn(-c4ccc(F)cc4)c3C=C1CC[C@@]2(O)CCc1cccc(F)c1CNS(=O)(=O)c1ccco1 [Example 92, N-(2-fluoro-6-{2-[(4αS,5R)-1-(4-fluorophenyl)-5-hydroxy-4α-methyl-1,4,4α,5,6,7-hexahydrocyclopenta[f]indazol-5-yl]ethyl}benzyl)furan-2-sulfonamide]
Cn1cnc(S(=O)(=O)NCc2c(F)cccc2CC[C@]2(O)CCC3=Cc4c(cnn4-c4ccc(F)cc4)C[C@@]32C)c1 [Example 93, N-(2-fluoro-6-{2-[(4αS,5R)-1-(4-fluorophenyl)-5-hydroxy-4α-methyl-1,4,4α,5,6,7-hexahydrocyclopenta[f]indazol-5-yl]ethyl}benzyl)-1-methyl-1H-imidazole-4-sulfonamide]
C[C@]12Cc3cnn(-c4ccc(F)cc4)c3C=C1CC[C@@]2(O)CCc1cccc(F)c1CNS(=O)(=O)c1ccccc1C#N [Example 94, 2-cyano-N-(2-fluoro-6-{2-[(4αS,5R)-1-(4-fluorophenyl)-5-hydroxy-4α-methyl-1,4,4α,5,6,7-hexahydrocyclopenta[f]indazol-5-yl]ethyl}benzyl)benzenesulfonamide]
C[C@H](NS(=O)(=O)C1CC1)c1ccccc1CC[C@]1(O)CCC2=Cc3c(cnn3-c3ccc(F)cc3)C[C@@]21C [Example 95, N-[(1S)-1-(2-{2-[(4αS,5R)-1-(4-fluorophenyl)-5-hydroxy-4α-methyl-1,4,4α,5,6,7-hexahydrocyclopenta[f]indazol-5-yl]ethyl}phenyl)ethyl]cyclopropanesulfonamide]
C[C@@H](NS(=O)(=O)CC(F)(F)F)c1c(F)cccc1CC[C@]1(O)CCC2=Cc3c(cnn3-c3ccc(F)cc3)C[C@@]21C [Example 96, 2,2,2-trifluoro-N-[(1R)-1-(2-fluoro-6-{2-[(4αS,5R)-1-(4-fluorophenyl)-5-hydroxy-4α-methyl-1,4,4α,5,6,7-hexahydrocyclopenta[f]indazol-5-yl]ethyl}phenyl)ethyl]ethanesulfonamide]
C[C@]12Cc3cnn(-c4ccc(F)cc4)c3C=C1CC[C@@]2(O)CCc1cccc(F)c1CNS(=O)(=O)CS(C)(=O)=O [Example 97, N-(2-fluoro-6-{2-[(4αS,5R)-1-(4-fluorophenyl)-5-hydroxy-4α-methyl-1,4,4α,5,6,7-hexahydrocyclopenta[f]indazol-5-yl]ethyl}benzyl)-1-(methylsulfonyl)methanesulfonamide]
C[C@]12Cc3cnn(-c4ccc(F)cc4)c3C=C1CC[C@@]2(O)CCc1cccc(F)c1CNS(C)(=O)=O [Example 98, N-(2-fluoro-6-{2-[(4αS,5R)-1-(4-fluorophenyl)-5-hydroxy-4α-methyl-1,4,4α,5,6,7-hexahydrocyclopenta[f]indazol-5-yl]ethyl}benzyl)methanesulfonamide]
C[C@H](NS(=O)(=O)CC(F)(F)F)c1c(F)cccc1CC[C@]1(O)CCC2=Cc3c(cnn3-c3ccc(F)cc3)C[C@@]21C [Example 99, 2,2,2-trifluoro-N-[(1S)-1-(2-fluoro-6-{2-[(4αS,5R)-1-(4-fluorophenyl)-5-hydroxy-4α-methyl-1,4,4α,5,6,7-hexahydrocyclopenta[f]indazol-5-yl]ethyl}phenyl)ethyl]ethanesulfonamide]
C[C@]12Cc3cnn(-c4ccc(F)cc4)c3C=C1CC[C@@]2(O)CCc1cccc(F)c1C1(NS(=O)(=O)C2CC2)CC1 [Example 100, N-[1-(2-fluoro-6-{2-[(4αS,5R)-1-(4-fluorophenyl)-5-hydroxy-4α-methyl-1,4,4α,5,6,7-hexahydrocyclopenta[f]indazol-5-yl]ethyl}phenyl)cyclopropyl]cyclopropanesulfonamide]
C[C@]12Cc3cnn(-c4ccc(F)cc4)c3C=C1CC[C@@]2(O)CCc1cccc(F)c1[C@@H](NS(=O)(=O)CC(F)(F)F)C(F)(F)F [Example 101, 2,2,2-trifluoro-N-[(1R)-2,2,2-trifluoro-1-(2-fluoro-6-{2-[(4αS,5R)-1-(4-fluorophenyl)-5-hydroxy-4α-methyl-1,4,4α,5,6,7-hexahydrocyclopenta[f]indazol-5-yl]ethyl}phenyl)ethyl]ethanesulfonamide]
C[C@]12Cc3cnn(-c4ccc(F)cc4)c3C=C1CC[C@@]2(O)CCc1cccc(F)c1C1(NS(=O)(=O)CC(F)(F)F)CC1 [Example 102, 2,2,2-trifluoro-N-[1-(2-fluoro-6-{2-[(4αS,5R)-1-(4-fluorophenyl)-5-hydroxy-4α-methyl-1,4,4α,5,6,7-hexahydrocyclopenta[f]indazol-5-102yl]ethyl}phenyl)cyclopropyl]ethanesulfonamide]

— patent US8119681B2, “2-[1-phenyl-5-hydroxy or methoxy-4alpha-methyl-hexahydrocyclopenta [ƒ]indazole-5-YL]ethyl phenyl derivatives as glucocorticoid receptor ligands” (Merck Sharp & Dohme Corp., priority 2006, dated 2012)
